Measured values: publication PMC8876114, “Cytotoxicity and anti-HIV activities of extracts of the twigs of Croton dichogamus Pax” (BMC Complementary Medicine and Therapies, 2022)
≈ marks a conversion by molar mass, not a printed value. Where two headings read alike, the source gives them in different places.

What was measured:
[1] = tested on: HL-60; design: method as in PMID 23103294; details: HL-60, MTT method; read-out: IC50 (cytotoxicity); cited from earlier work
[2] = tested on: A-549; design: method as in PMID 23103294; details: A-549, MTT method; read-out: IC50 (cytotoxicity); cited from earlier work
[3] = tested on: SW-480; design: method as in PMID 23103294; details: SW-480, MTT method; read-out: IC50 (cytotoxicity); cited from earlier work
[4] = tested on: SMMC-7721; design: method as in PMID 23103294; details: SMMC-7721, MTT method; read-out: IC50 (cytotoxicity); cited from earlier work
[5] = tested on: MCF-7; design: method as in PMID 23103294; details: MCF-7, MTT method; read-out: IC50 (cytotoxicity); cited from earlier work
[6] = tested on: HIV; design: method as in PMID 8176401; details: cited from earlier work
[7] = tested on: human T-lymphocytic MT-4 cells; type: cell-based; details: for CC50 (50% cytotoxic concentration): MT-4 cells, MTT, mean ± S.E.M; for MNTC (maximum nontoxic concentration): human
Method: In this study, human T-lymphocytic MT-4 cells (ARP-120) were obtained through the National Institute of Health (NIH) HIV Reagent Program, Division of AIDS, National Institute of Allergy, and Infectious Diseases (NIAID), NIH: MT-4 Cells, ARP-120, contributed by Dr. Douglas Richman. The cytotoxicity test was conducted to evaluate the plant extracts' safety by measuring cell death caused by the plant extracts. The assay was conducted using the MTT colorimetric assay as described previously.
Four solvent fractions of twigs of C. dichogamus were examined for their ability to inhibit HIV-1 replication. In addition, the in vitro toxicity of these extracts to human T-lymphocytic MT-4 cells was investigated by MTT assay. […] The average absorbance value from three replicate determinations was used to express the viability of the cells as a percentage of negative controls, and the CC50 for each plant extract was determined graphically by plotting the % growth inhibition (Emaxc) against the plant extract concentration.

[8] = tested on: HIV-1IIIB laboratory-adapted strain; test: Anti-HIV activity test: prevention of HIV-1 cytopathic effect in MT-4 cells (MTT); type: cell-based, Human immunodeficiency virus type 1; details: for IC50: Human immunodeficiency virus 1, MT4, read-out: IC50 (50% antiviral effect concentration); for EmaxAV (maximum antiviral effect %): inhibition of viral-induced cytopathic effect, HIV-1IIIB in MT-4 cells; for SI (selectivity index): ratio of CC50 to IC50, MT-4 cells
Method: Human immunodeficiency virus type 1 (HIV-1) IIIB (also referred to as HTLV-IIIB) was obtained through the NIH HIV Reagent Program, Division of AIDS, NIAID, NIH: Human Immunodeficiency Virus-1 IIIB, ARP-398, contributed by Dr. Robert Gallo. The effects of the test compounds in preventing the cytopathic effect resulting from HIV-1 replication were evaluated by the MTT colorimetric assay described above.
The laboratory-adapted strain of human immunodeficiency virus type 1 (HIV-1IIIB) obtained from the National Institutes of Health HIV Reagent Program was used in this experiment. A total of 50 µl of different concentrations ([…]) of the test compounds were seeded into 96-well flat-bottomed microtiter culture plates containing HIV-infected MT-4 cells.

[9] = tested on: HIV; details: cell-based in vitro assay; literature report, no reference given; cited from earlier work
[10] = tested on: Caco-2 human colon carcinoma cell lines; details: cited from earlier work
[11] = tested on: HIV; design: method as in PMID 14980692; details: cited from earlier work
[12] = HIV-1IIIB-infected MT-4 cells, MTT, mean ± S.E.M

## maninsigin D
[1]
  IC50: > 40 µM
[2]
  IC50: > 40 µM
[3]
  IC50: > 40 µM
[4]
  IC50: > 40 µM
[5]
  IC50: > 40 µM

## C=C(C)[C@@H]1CC[C@]2(C(=O)O)CC[C@]3(C)[C@H](CC[C@@H]4[C@@]5(C)CC[C@H](O)C(C)(C)[C@@H]5CC[C@]43C)[C@@H]12 [betulinic acid]
[6]
  anti-HIV activity (in words): exhibited anti-HIV activity

## Cc1ccnc2c1NC(=O)c1cccnc1N2C1CC1 [NVP, nevirapine]
[7]
  CC50 (50% cytotoxic concentration): 0.82 ± 0.0 µg/mL (≈ 3.08 µM)
  MNTC (maximum nontoxic concentration): 0.57 ± 0.0 µg/mL
[8]; [12]
  IC50: 0.24 ± 0.09 µg/mL (≈ 0.901 µM)
[8]; mean ± S.E.M
  EmaxAV (maximum antiviral effect %): 72.53 ± 0.47%
[8]
  SI (selectivity index): 3.5

## CC1=CC[C@]2(C)CC(=O)[C@]3(C)C(=O)C=C(C(C)C)[C@@H]3[C@H]2CC1 [cyanthiwigin B]
[9]
  anti-HIV activity (in words): Moderate anti-HIV activity

## furocrotinsulolide
[10]; Caco-2 cell line, at 30 μm
  cytotoxicity activity (in words): modest cytotoxicity activity

## CC1(C)CC[C@]2(C(=O)O)CC[C@]3(C)C(=CC[C@@H]4[C@@]5(C)CC[C@H](O)C(C)(C)[C@@H]5CC[C@]43C)[C@@H]2C1 [oleanolic acid]
[6]
  anti-HIV activity (in words): exhibited anti-HIV activity

## C[C@H](Cn1cnc2c(N)ncnc21)OCP(=O)(O)O [TDF, tenofovir]
[7]
  CC50 (50% cytotoxic concentration): 6.73 ± 0.24 µg/mL (≈ 23.4 µM)
  MNTC (maximum nontoxic concentration): 4.92 ± 0.71 µg/mL
[8]; [12]
  IC50: 0.04 ± 0.01 µg/mL (≈ 0.139 µM)
[8]; mean ± S.E.M
  EmaxAV (maximum antiviral effect %): 80.55 ± 0.46%

## Nc1nc(NC2CC2)c2ncn([C@H]3C=C[C@@H](CO)C3)c2n1 [ABC, abacavir]
[7]
  CC50 (50% cytotoxic concentration): 0.26 ± 0.00 µg/mL (≈ 0.908 µM)
  MNTC (maximum nontoxic concentration): 0.18 ± 0.03 µg/mL
[8]; [12]
  IC50: 0.05 ± 0.031 µg/mL (≈ 0.175 µM)
[8]; mean ± S.E.M
  EmaxAV (maximum antiviral effect %): 58.67 ± 0.43%
[8]
  SI (selectivity index): 5.0

## Cc1cn([C@H]2C[C@H](N=[N+]=[N-])[C@@H](CO)O2)c(=O)[nH]c1=O [AZT, zidovudine]
[8]
  IC50: 0.002 µg/mL (≈ 0.00748 µM)
[8]; mean ± S.E.M
  EmaxAV (maximum antiviral effect %): 83.5 ± 0.57%
[8]; mean ± S.E.M, listed as zidovudine
  EmaxAV (maximum antiviral effect %): 83.5%

## 10-epi-manninsigin D
[10]; Caco-2, at a concentration of 100 mM
  decrease of viability: 43%

## acetin
[11]
  anti-HIV activity (in words): potent anti-HIV activity

## CC(=O)[C@@H]1CC[C@]2(C(=O)O)CC[C@]3(C)[C@H](CC[C@@H]4[C@@]5(C)CC[C@H](O)C(C)(C)[C@@H]5CC[C@]43C)[C@@H]12 [platanic acid]
[6]
  anti-HIV activity (in words): exhibited anti-HIV activity
